From patent US20240158446A1, “CYCLIC COMPOUND HAVING SELECTIVE INHIBITORY ACTION ON KRAS OVER HRAS AND NRAS” (CHUGAI SEIYAKU KABUSHIKI KAISHA, priority 2021, published 2024)

Key:
[1] = target: GDP-bound NRAS wild-type protein (Homo sapiens, UniProt P01111); assay: Binding to NRAS by surface plasmon resonance (SPR), Single Cycle Kinetics; conditions: for NRAS/KRAS (ratio of KD value with respect to NRAS to KD value with respect to KRAS) / NRAS/KRAS (ratio of KD value for NRAS to KD value for KRAS): SPR, GDP-bound NRAS wild-type protein vs GDP-bound KRAS wild-type protein
GDP-bound NRAS wild-type protein, sequence (P01111 whole entry): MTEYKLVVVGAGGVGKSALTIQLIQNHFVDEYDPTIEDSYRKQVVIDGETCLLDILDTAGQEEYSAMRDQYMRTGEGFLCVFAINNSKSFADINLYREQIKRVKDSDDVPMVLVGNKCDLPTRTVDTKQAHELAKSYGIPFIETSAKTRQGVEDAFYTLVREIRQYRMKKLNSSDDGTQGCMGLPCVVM

[2] = target: GDP-bound HRAS wild-type protein (Homo sapiens, UniProt P01112); assay: Binding to HRAS by surface plasmon resonance (SPR), Single Cycle Kinetics; conditions: for HRAS/KRAS (ratio of KD value with respect to HRAS to KD value with respect to KRAS) / HRAS/KRAS (ratio of KD value for HRAS to KD value for KRAS): SPR, GDP-bound HRAS wild-type protein vs GDP-bound KRAS wild-type protein
GDP-bound HRAS wild-type protein, sequence (P01112 whole entry): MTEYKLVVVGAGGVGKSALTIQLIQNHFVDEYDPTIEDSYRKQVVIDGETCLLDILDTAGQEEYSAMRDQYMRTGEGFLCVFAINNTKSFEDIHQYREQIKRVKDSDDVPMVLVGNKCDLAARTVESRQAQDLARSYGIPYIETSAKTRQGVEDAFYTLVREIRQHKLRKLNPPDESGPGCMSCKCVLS

CC[C@H](C)[C@@H]1NC(=O)[C@H](CC(C)C)N(C)C(=O)C[C@@H](C(=O)N(C)C)N(C)C(=O)[C@H](C2CCCC2)N(C)C(=O)C2(CCCC2)NC(=O)[C@@H]2CCCN2C(=O)[C@H](CCc2ccc(C(F)(F)F)c(Cl)c2)NC(=O)CN(C)C(=O)[C@H](Cc2ccc(C(F)(F)F)cc2)N2CC=CCOC[C@H](C2=O)N(C)C(=O)CN(C)C1=O [PP0628]
NRAS/KRAS (ratio of KD value with respect to NRAS to KD value with respect to KRAS) [1]: C (A compound having a KD ratio of 0.1 or more and less than 3 is denoted as C) | HRAS/KRAS (ratio of KD value with respect to HRAS to KD value with respect to KRAS) [2]: C (A compound having a KD ratio of 0.1 or more and less than 3 is denoted as C)

CCCOC[C@H]1C(=O)N[C@@H]([C@@H](C)CC)C(=O)N(C2CC2)CC(=O)N(C)[C@H]2C/C=C\CCN(C2=O)[C@@H](CC2CCC(F)(F)CC2)C(=O)N(C)CC(=O)N[C@@H](CCc2ccc(C(F)(F)F)c(OC)c2)C(=O)N2C[C@H](OCC)C[C@H]2C(=O)N(C)C2(CCC2)C(=O)N(C)[C@@H](C2CCCC2)C(=O)N(C)[C@H](C(=O)N(C)C)CC(=O)N1C [PP2354]
NRAS/KRAS (ratio of KD value for NRAS to KD value for KRAS) [1]: A (a compound having 10 or more and less than 20 is denoted as A) | HRAS/KRAS (ratio of KD value for HRAS to KD value for KRAS) [2]: A (a compound having 10 or more and less than 20 is denoted as A)

CCC[C@H]1C(=O)N[C@@H]([C@H](C)CC)C(=O)N(C)CC(=O)N(C)[C@H]2C/C=C\CCN(C2=O)[C@@H](Cc2ccc(C)cc2)C(=O)N(C)CC(=O)N[C@@H](CCc2ccc(C(F)(F)F)c(Cl)c2)C(=O)N2C[C@H](OCC)C[C@H]2C(=O)NC2(CC(C)(C)C2)C(=O)N(C)[C@@H](CC(C)(C)C)C(=O)N(C)[C@H](C(=O)N(C)C)CC(=O)N1C [PP2219]
NRAS/KRAS (ratio of KD value for NRAS to KD value for KRAS) [1]: A (a compound having 10 or more and less than 20 is denoted as A) | HRAS/KRAS (ratio of KD value for HRAS to KD value for KRAS) [2]: A (a compound having 10 or more and less than 20 is denoted as A)

CC[C@H](C)[C@@H]1NC(=O)[C@H](CC(C)C)N(C)C(=O)C[C@@H](C(=O)N2CCOCC2)N(C)C(=O)[C@H](C2CCCC2)N(C)C(=O)C2(CCCC2)NC(=O)[C@@H]2CCCN2C(=O)[C@H](CCc2cc(F)c(C(F)(F)F)c(F)c2)NC(=O)CN(C)C(=O)[C@H](Cc2ccc(F)cc2)N2CCCCC[C@@H](C2=O)N(C)C(=O)CN(C)C1=O [PP0964]
NRAS/KRAS (ratio of KD value for NRAS to KD value for KRAS) [1]: B (a compound having 3 or more and less than 10 is denoted as B) | HRAS/KRAS (ratio of KD value for HRAS to KD value for KRAS) [2]: B (a compound having 3 or more and less than 10 is denoted as B)

CCC[C@H]1C(=O)N[C@@H]([C@@H](C)CC)C(=O)N(C)CC(=O)N(C)[C@H]2C/C=C\CCN(C2=O)[C@@H](Cc2ccc(C)cc2)C(=O)N(C)CC(=O)N[C@@H](CCc2cc(F)c(C(F)(F)F)c(F)c2)C(=O)N2C[C@H](OCC)C[C@H]2C(=O)NC2(CC(C)(C)C2)C(=O)N(C)[C@@H](CC2CC2)C(=O)N(C)[C@H](C(=O)N(C)C)CC(=O)N1C [PP2797]
NRAS/KRAS (ratio of KD value with respect to GDP-bound NRAS wild-type protein to KD value with respect to KRAS) ([1]; SPR KD ratio NRAS/KRAS, class symbols): A (a compound having 10 or more and less than 20 is denoted as A) | HRAS/KRAS (ratio of KD value with respect to GDP-bound HRAS wild-type protein to KD value with respect to KRAS) ([2]; SPR KD ratio HRAS/KRAS, class symbols): A (a compound having 10 or more and less than 20 is denoted as A)

CCO[C@@H]1C[C@H]2C(=O)NC3(CCC3)C(=O)N(C)[C@@H](C(CC)CC)C(=O)N(C)[C@H](C(=O)N3CCOCC3)CC(=O)N(C)[C@@H](CC(C)C)C(=O)N[C@@H]([C@@H](C)CC)C(=O)N(C)CC(=O)N(C)[C@H]3CCCCCN(C3=O)[C@@H](Cc3ccc(C(F)(F)F)cc3)C(=O)N(C)CC(=O)N[C@@H](CCc3cc(F)c(C(F)(F)F)c(F)c3)C(=O)N2C1 [PP0820]
NRAS/KRAS (ratio of KD value for NRAS to KD value for KRAS) [1]: A (a compound having 10 or more and less than 20 is denoted as A) | HRAS/KRAS (ratio of KD value for HRAS to KD value for KRAS) [2]: B (a compound having 3 or more and less than 10 is denoted as B)

CCO[C@@H]1C[C@H]2C(=O)NC3(CCC3)C(=O)N(C)[C@@H](C3CCCC3)C(=O)N(C)[C@H](C(=O)N(CC)CC)CC(=O)N(C)[C@@H](CC(F)F)C(=O)N[C@@H]([C@@H](C)CC)C(=O)N(C)CC(=O)N(C)[C@H]3C/C=C\CCN(C3=O)[C@@H](Cc3ccc(C(F)(F)F)cc3)C(=O)N(C)CC(=O)N[C@@H](CCc3cc(F)c(C(F)(F)F)c(F)c3)C(=O)N2C1 [PP1309]
NRAS/KRAS (ratio of KD value for NRAS to KD value for KRAS) ([1]; KD ratio class): A (a compound having 10 or more and less than 20 is denoted as A) | HRAS/KRAS (ratio of KD value for HRAS to KD value for KRAS) ([2]; KD ratio class): A (a compound having 10 or more and less than 20 is denoted as A)

CCO[C@@H]1C[C@H]2C(=O)NC3(CC(C)(C)C3)C(=O)N(C)[C@@H](C(CC)CC)C(=O)N(C)[C@H](C(=O)N(C)C)CC(=O)N(C)[C@@H](C(C)C)C(=O)N[C@@H]([C@@H](C)CC)C(=O)N(C)CC(=O)N(C)[C@H]3C/C=C\CCN(C3=O)[C@@H](Cc3ccc(C)cc3)C(=O)N(C)CC(=O)N[C@@H](CCc3cc(F)c(C(F)(F)F)c(F)c3)C(=O)N2C1 [PP2153]
NRAS/KRAS (ratio of KD value for NRAS to KD value for KRAS) [1]: A (a compound having 10 or more and less than 20 is denoted as A) | HRAS/KRAS (ratio of KD value for HRAS to KD value for KRAS) [2]: A (a compound having 10 or more and less than 20 is denoted as A)

CCCOC[C@H]1C(=O)N[C@@H]([C@@H](C)CC)C(=O)N(C)CC(=O)N(C)[C@H]2C/C=C\CCN(C2=O)[C@@H](Cc2ccc(C)cc2)C(=O)N(C)CC(=O)N[C@@H](CCc2cc(F)c(C(F)(F)F)c(F)c2)C(=O)N2C[C@H](CCC)C[C@H]2C(=O)NC2(CC(C)(C)C2)C(=O)N(C)[C@@H](C2CCCC2)C(=O)N(C)[C@H](C(=O)N(C)C)CC(=O)N1C [PP2203]
NRAS/KRAS (ratio of KD value for NRAS to KD value for KRAS) [1]: A (a compound having 10 or more and less than 20 is denoted as A) | HRAS/KRAS (ratio of KD value for HRAS to KD value for KRAS) [2]: A (a compound having 10 or more and less than 20 is denoted as A)

C#CCN1CC(=O)N(C)[C@H]2C/C=C\CCN(C2=O)[C@@H](Cc2ccc(C)cc2)C(=O)N(C)CC(=O)N[C@@H](CCc2ccc(C(F)(F)F)c(OC)c2)C(=O)N2C[C@H](OCC)C[C@H]2C(=O)NC2(CC(C)(C)C2)C(=O)N(C)[C@@H](C2CCCC2)C(=O)N(C)[C@H](C(=O)N(C)C)CC(=O)N(C)[C@@H](CCC)C(=O)N[C@@H]([C@@H](C)CC)C1=O [PP2099]
NRAS/KRAS (ratio of KD value for NRAS to KD value for KRAS) [1]: A (a compound having 10 or more and less than 20 is denoted as A) | HRAS/KRAS (ratio of KD value for HRAS to KD value for KRAS) [2]: A (a compound having 10 or more and less than 20 is denoted as A)

CCO[C@@H]1C[C@H]2C(=O)NC3(CCC3)C(=O)N(C)[C@@H](C3CCCC3)C(=O)N(C)[C@H](C(=O)N(C)C)CC(=O)N(C)[C@@H](C)C(=O)N[C@@H]([C@H](C)CC)C(=O)N(C)CC(=O)N(C)[C@H]3CCCCCN(C3=O)[C@@H](Cc3ccc(C(F)(F)F)cc3)C(=O)N(C)CC(=O)N[C@@H](CCc3cc(F)c(C(F)(F)F)c(F)c3)C(=O)N2C1 [PP0729]
NRAS/KRAS (ratio of KD value with respect to NRAS to KD value with respect to KRAS) [1]: B (a compound having 3 or more and less than 10 is denoted as B) | HRAS/KRAS (ratio of KD value with respect to HRAS to KD value with respect to KRAS) [2]: B (a compound having 3 or more and less than 10 is denoted as B)

CCO[C@@H]1C[C@H]2C(=O)NC3(CCC3)C(=O)N(C)[C@@H](C3CCCC3)C(=O)N(C)[C@H](C(=O)N(C)C)CC(=O)N(C)[C@@H](CC)C(=O)N[C@@H]([C@@H](C)CC)C(=O)N3CCC[C@H]3C(=O)N(C)[C@H]3C/C=C\CCN(C3=O)[C@@H](Cc3ccc(C(F)(F)F)cc3)C(=O)N(C)CC(=O)N[C@@H](CCc3cc(F)c(C(F)(F)F)c(F)c3)C(=O)N2C1 [PP1056]
NRAS/KRAS (ratio of KD value for NRAS to KD value for KRAS) [1]: A (a compound having 10 or more and less than 20 is denoted as A) | HRAS/KRAS (ratio of KD value for HRAS to KD value for KRAS) [2]: A (a compound having 10 or more and less than 20 is denoted as A)

CC[C@H](C)[C@@H]1NC(=O)[C@H](CC)N(C)C(=O)C[C@@H](C(=O)N(C)C)N(C)C(=O)[C@H](C2CCCC2)N(C)C(=O)C2(CCC2)NC(=O)[C@@H]2CCN2C(=O)[C@H](CCc2cc(F)c(C(F)(F)F)c(F)c2)NC(=O)CN(C)C(=O)[C@H](Cc2ccc(C(F)(F)F)cc2)N2CCCCC[C@@H](C2=O)N(C)C(=O)CN(C)C1=O [PP0654]
NRAS/KRAS (ratio of KD value with respect to NRAS to KD value with respect to KRAS) [1]: B (a compound having 3 or more and less than 10 is denoted as B) | HRAS/KRAS (ratio of KD value with respect to HRAS to KD value with respect to KRAS) [2]: B (a compound having 3 or more and less than 10 is denoted as B)

CC[C@H](C)[C@@H]1NC(=O)[C@H](CC)N(C)C(=O)C[C@@H](C(=O)N2CCOCC2)N(C)C(=O)[C@H](C2CCCC2)N(C)C(=O)C2(CCCC2)NC(=O)[C@@H]2CCCN2C(=O)[C@H](CCc2cc(F)c(C(F)(F)F)c(F)c2)NC(=O)CN(C)C(=O)[C@H](Cc2ccc(C(F)(F)F)cc2)N2CCCC[C@@H](C2=O)N(C)C(=O)CN(C)C1=O [PP0550]
NRAS/KRAS (ratio of KD value with respect to NRAS to KD value with respect to KRAS) [1]: B (a compound having 3 or more and less than 10 is denoted as B) | HRAS/KRAS (ratio of KD value with respect to HRAS to KD value with respect to KRAS) [2]: B (a compound having 3 or more and less than 10 is denoted as B)

CCO[C@@H]1C[C@H]2C(=O)NC3(CCC3)C(=O)N(C)[C@@H](C3CCCC3)C(=O)N(C)[C@H](C(=O)N3CCOCC3)CC(=O)N(C)[C@@H](CC(C)C)C(=O)N[C@@H]([C@H](C)CC)C(=O)N(C)CC(=O)N(C)[C@H]3CCCCN(C3=O)[C@@H](Cc3ccc(C(F)(F)F)cc3)C(=O)N(C)CC(=O)N[C@@H](CCc3cc(F)c(C(F)(F)F)c(F)c3)C(=O)N2C1 [PP0806]
NRAS/KRAS (ratio of KD value with respect to NRAS to KD value with respect to KRAS) [1]: B (a compound having 3 or more and less than 10 is denoted as B) | HRAS/KRAS (ratio of KD value with respect to HRAS to KD value with respect to KRAS) [2]: B (a compound having 3 or more and less than 10 is denoted as B)

CCO[C@@H]1C[C@H]2C(=O)NC3(CCC3)C(=O)N(C)[C@@H](C3CCCC3)C(=O)N(C)[C@H](C(=O)N3CCOCC3)CC(=O)N(C)[C@@H](CC3CCCCC3)C(=O)N[C@@H]([C@@H](C)CC)C(=O)N(C)CC(=O)N(C)[C@H]3CCCCCN(C3=O)[C@@H](Cc3ccc(C(F)(F)F)cc3)C(=O)N(C)CC(=O)N[C@@H](CCc3cc(F)c(C(F)(F)F)c(F)c3)C(=O)N2C1 [PP0686]
NRAS/KRAS (ratio of KD value with respect to NRAS to KD value with respect to KRAS) [1]: B (a compound having 3 or more and less than 10 is denoted as B) | HRAS/KRAS (ratio of KD value with respect to HRAS to KD value with respect to KRAS) [2]: B (a compound having 3 or more and less than 10 is denoted as B)
